Laboratory results published in PubChem BioAssay (NCI).
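All cell lines were grown in 96-well plates and treated with compound for 48 hours. GI50 = concentration required for 50% inhibition of growth. At the TGI there is no net growth.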

How the values were obtained:
Test in all cases: inhibition of tumour cell growth, NCI panel, 48 h
786-0 renal = tested on: 786-0 renal
A498 renal = tested on: A498 renal
ACHN renal = tested on: ACHN renal
BT-549 breast = tested on: BT-549 breast
CAKI-1 renal = tested on: CAKI-1 renal
CCRF-CEM leukemia = tested on: CCRF-CEM leukemia
COLO 205 colon = tested on: COLO 205 colon
DU-145 prostate = tested on: DU-145 prostate
EKVX NSCLC = tested on: EKVX NSCLC
HCC-2998 colon = tested on: HCC-2998 colon
HCT-116 colon = tested on: HCT-116 colon
HCT-15 colon = tested on: HCT-15 colon
HL-60(TB) leukemia = tested on: HL-60(TB) leukemia
HOP-62 NSCLC = tested on: HOP-62 NSCLC
HS 578T breast = tested on: HS 578T breast
HT29 colon = tested on: HT29 colon
K-562 leukemia = tested on: K-562 leukemia
KM12 colon = tested on: KM12 colon
LOX IMVI melanoma = tested on: LOX IMVI melanoma
M14 melanoma = tested on: M14 melanoma
MALME-3M melanoma = tested on: MALME-3M melanoma
MCF7 breast = tested on: MCF7 breast
MDA-MB-231 breast = tested on: MDA-MB-231 breast
MDA-MB-435 = tested on: MDA-MB-435
MOLT-4 leukemia = tested on: MOLT-4 leukemia
NCI-H226 lung = tested on: NCI-H226 lung
NCI-H23 lung = tested on: NCI-H23 lung
NCI-H460 lung = tested on: NCI-H460 lung
NCI-H522 lung = tested on: NCI-H522 lung
NCI/ADR-RES ovarian = tested on: NCI/ADR-RES ovarian
OVCAR-3 ovarian = tested on: OVCAR-3 ovarian
OVCAR-4 ovarian = tested on: OVCAR-4 ovarian
OVCAR-5 ovarian = tested on: OVCAR-5 ovarian
OVCAR-8 ovarian = tested on: OVCAR-8 ovarian
PC-3 prostate = tested on: PC-3 prostate
SF-268 CNS = tested on: SF-268 CNS
SF-295 CNS = tested on: SF-295 CNS
SF-539 CNS = tested on: SF-539 CNS
SK-MEL-2 melanoma = tested on: SK-MEL-2 melanoma
SK-MEL-28 melanoma = tested on: SK-MEL-28 melanoma
SK-MEL-5 melanoma = tested on: SK-MEL-5 melanoma
SK-OV-3 ovarian = tested on: SK-OV-3 ovarian
SN12C renal = tested on: SN12C renal
SNB-19 CNS = tested on: SNB-19 CNS
SNB-75 CNS = tested on: SNB-75 CNS
SR leukemia = tested on: SR leukemia
SW-620 colon = tested on: SW-620 colon
T-47D breast = tested on: T-47D breast
TK-10 renal = tested on: TK-10 renal
U251 CNS = tested on: U251 CNS
UACC-257 melanoma = tested on: UACC-257 melanoma
UACC-62 melanoma = tested on: UACC-62 melanoma
UO-31 renal = tested on: UO-31 renal
A549 NSCLC = tested on: A549 NSCLC
HOP-92 NSCLC = tested on: HOP-92 NSCLC
IGROV1 ovarian = tested on: IGROV1 ovarian
RPMI-8226 leukemia = tested on: RPMI-8226 leukemia

In the case of `O=C(O)c1ccc2nc(-c3ccc(OCCCCCOc4ccc(-c5nc6ccc(C(=O)O)cc6[nH]5)cc4)cc3)[nH]c2c1`, the GI50 (786-0 renal) is reported as > 100 µM, the TGI (786-0 renal) is reported as > 100 µM and the GI50 (A498 renal) is reported as > 100 µM. The TGI (A498 renal) was > 100 µM, the GI50 (ACHN renal) was > 100 µM and the TGI (ACHN renal) was > 100 µM. For the same compound, the GI50 (BT-549 breast) was > 100 µM, the TGI (BT-549 breast) was > 100 µM and the GI50 (CAKI-1 renal) was > 100 µM. The TGI (CAKI-1 renal) was > 100 µM, the GI50 (CCRF-CEM leukemia) was 18.8 µM and the TGI (CCRF-CEM leukemia) was 44.2 µM. For the same compound, the GI50 (COLO 205 colon) was > 100 µM, the TGI (COLO 205 colon) was > 100 µM and the GI50 (DU-145 prostate) was > 100 µM. The TGI (DU-145 prostate) was > 100 µM, the GI50 (EKVX NSCLC) was > 100 µM and the TGI (EKVX NSCLC) was > 100 µM. The GI50 (HCC-2998 colon) was > 100 µM, the TGI (HCC-2998 colon) was > 100 µM and the GI50 (HCT-116 colon) was > 100 µM. The TGI (HCT-116 colon) was > 100 µM, the GI50 (HCT-15 colon) was > 100 µM and the TGI (HCT-15 colon) was > 100 µM. For the same compound, the GI50 (HL-60(TB) leukemia) was > 100 µM, the TGI (HL-60(TB) leukemia) was > 100 µM and the GI50 (HOP-62 NSCLC) was > 100 µM. The TGI (HOP-62 NSCLC) was > 100 µM, the GI50 (HS 578T breast) was > 100 µM and the TGI (HS 578T breast) was > 100 µM. The GI50 (HT29 colon) was > 100 µM, the TGI (HT29 colon) was > 100 µM and the GI50 (K-562 leukemia) was 22.3 µM. The TGI (K-562 leukemia) was > 100 µM, the GI50 (KM12 colon) was > 100 µM and the TGI (KM12 colon) was > 100 µM. The GI50 (LOX IMVI melanoma) was > 100 µM, the TGI (LOX IMVI melanoma) was > 100 µM and the GI50 (M14 melanoma) was > 100 µM. For the same compound, the TGI (M14 melanoma) was > 100 µM, the GI50 (MALME-3M melanoma) was > 100 µM and the TGI (MALME-3M melanoma) was > 100 µM. The GI50 (MCF7 breast) was > 100 µM, the TGI (MCF7 breast) was > 100 µM and the GI50 (MDA-MB-231 breast) was > 100 µM. For the same compound, the TGI (MDA-MB-231 breast) was > 100 µM, the GI50 (MDA-MB-435) was > 100 µM and the TGI (MDA-MB-435) was > 100 µM. The GI50 (MOLT-4 leukemia) was 29.7 µM, the TGI (MOLT-4 leukemia) was > 100 µM and the GI50 (NCI-H226 lung) was > 100 µM. For the same compound, the TGI (NCI-H226 lung) was > 100 µM, the GI50 (NCI-H23 lung) was > 100 µM and the TGI (NCI-H23 lung) was > 100 µM. The GI50 (NCI-H460 lung) was > 100 µM, the TGI (NCI-H460 lung) was > 100 µM and the GI50 (NCI-H522 lung) was > 100 µM. For the same compound, the TGI (NCI-H522 lung) was > 100 µM, the GI50 (NCI/ADR-RES ovarian) was > 100 µM and the TGI (NCI/ADR-RES ovarian) was > 100 µM. The GI50 (OVCAR-3 ovarian) was > 100 µM, the TGI (OVCAR-3 ovarian) was > 100 µM and the GI50 (OVCAR-4 ovarian) was > 100 µM. For the same compound, the TGI (OVCAR-4 ovarian) was > 100 µM, the GI50 (OVCAR-5 ovarian) was > 100 µM and the TGI (OVCAR-5 ovarian) was > 100 µM. The GI50 (OVCAR-8 ovarian) was > 100 µM, the TGI (OVCAR-8 ovarian) was > 100 µM and the GI50 (PC-3 prostate) was > 100 µM. The TGI (PC-3 prostate) was > 100 µM, the GI50 (SF-268 CNS) was > 100 µM and the TGI (SF-268 CNS) was > 100 µM. For the same compound, the GI50 (SF-295 CNS) was > 100 µM, the TGI (SF-295 CNS) was > 100 µM and the GI50 (SF-539 CNS) was > 100 µM. The TGI (SF-539 CNS) was > 100 µM, the GI50 (SK-MEL-2 melanoma) was > 100 µM and the TGI (SK-MEL-2 melanoma) was > 100 µM. The GI50 (SK-MEL-28 melanoma) was > 100 µM, the TGI (SK-MEL-28 melanoma) was > 100 µM and the GI50 (SK-MEL-5 melanoma) was > 100 µM. For the same compound, the TGI (SK-MEL-5 melanoma) was > 100 µM, the GI50 (SK-OV-3 ovarian) was > 100 µM and the TGI (SK-OV-3 ovarian) was > 100 µM. The GI50 (SN12C renal) was > 100 µM, the TGI (SN12C renal) was > 100 µM and the GI50 (SNB-19 CNS) was > 100 µM. For the same compound, the TGI (SNB-19 CNS) was > 100 µM, the GI50 (SNB-75 CNS) was > 100 µM and the TGI (SNB-75 CNS) was > 100 µM. For the same compound, the GI50 (SR leukemia) was 22.3 µM, the TGI (SR leukemia) was 48.6 µM and the GI50 (SW-620 colon) was > 100 µM. For the same compound, the TGI (SW-620 colon) was > 100 µM, the GI50 (T-47D breast) was > 100 µM and the TGI (T-47D breast) was > 100 µM. For the same compound, the GI50 (TK-10 renal) was > 100 µM, the TGI (TK-10 renal) was > 100 µM and the GI50 (U251 CNS) was > 100 µM. For the same compound, the TGI (U251 CNS) was > 100 µM, the GI50 (UACC-257 melanoma) was > 100 µM and the TGI (UACC-257 melanoma) was > 100 µM. For the same compound, the GI50 (UACC-62 melanoma) was > 100 µM, the TGI (UACC-62 melanoma) was > 100 µM and the GI50 (UO-31 renal) was > 100 µM. The TGI (UO-31 renal) was > 100 µM.

In the case of `COc1ccc(CN(Cc2ccc(OC)cc2)C(=O)CC2(O)CCc3ccccc3C2)cc1` (configuration not stated), the TGI (786-0 renal) is reported as > 100 µM, the TGI (A498 renal) is reported as > 100 µM and the TGI (A549 NSCLC) is reported as > 100 µM. For the same compound, the TGI (ACHN renal) was > 100 µM, the TGI (BT-549 breast) was > 100 µM and the TGI (CAKI-1 renal) was > 100 µM. The TGI (CCRF-CEM leukemia) was > 100 µM, the TGI (COLO 205 colon) was 57.4 µM and the TGI (DU-145 prostate) was > 100 µM. The TGI (EKVX NSCLC) was > 100 µM, the TGI (HCC-2998 colon) was > 100 µM and the TGI (HCT-116 colon) was > 100 µM. The TGI (HCT-15 colon) was > 100 µM, the TGI (HL-60(TB) leukemia) was 80.1 µM and the TGI (HOP-62 NSCLC) was > 100 µM. The TGI (HOP-92 NSCLC) was > 100 µM, the TGI (HS 578T breast) was > 100 µM and the TGI (HT29 colon) was > 100 µM. For the same compound, the TGI (IGROV1 ovarian) was > 100 µM, the TGI (K-562 leukemia) was > 100 µM and the TGI (KM12 colon) was > 100 µM. For the same compound, the TGI (LOX IMVI melanoma) was > 100 µM, the TGI (M14 melanoma) was > 100 µM and the TGI (MALME-3M melanoma) was > 100 µM. The TGI (MCF7 breast) was > 100 µM, the TGI (MDA-MB-231 breast) was > 100 µM and the TGI (MDA-MB-435) was > 100 µM. The TGI (MOLT-4 leukemia) was 56 µM, the TGI (NCI-H226 lung) was > 100 µM and the TGI (NCI-H23 lung) was > 100 µM. For the same compound, the TGI (NCI-H460 lung) was > 100 µM, the TGI (NCI-H522 lung) was > 100 µM and the TGI (NCI/ADR-RES ovarian) was > 100 µM. For the same compound, the TGI (OVCAR-3 ovarian) was > 100 µM, the TGI (OVCAR-4 ovarian) was > 100 µM and the TGI (OVCAR-5 ovarian) was > 100 µM. The TGI (OVCAR-8 ovarian) was > 100 µM, the TGI (PC-3 prostate) was > 100 µM and the TGI (RPMI-8226 leukemia) was > 100 µM. The TGI (SF-295 CNS) was > 100 µM, the TGI (SF-539 CNS) was > 100 µM and the TGI (SK-MEL-2 melanoma) was > 100 µM. The TGI (SK-MEL-28 melanoma) was > 100 µM, the TGI (SK-MEL-5 melanoma) was > 100 µM and the TGI (SK-OV-3 ovarian) was > 100 µM. For the same compound, the TGI (SN12C renal) was > 100 µM, the TGI (SNB-19 CNS) was > 100 µM and the TGI (SNB-75 CNS) was > 100 µM. The TGI (SR leukemia) was > 100 µM, the TGI (SW-620 colon) was > 100 µM and the TGI (T-47D breast) was > 100 µM. For the same compound, the TGI (TK-10 renal) was > 100 µM, the TGI (U251 CNS) was > 100 µM and the TGI (UACC-257 melanoma) was > 100 µM. For the same compound, the TGI (UACC-62 melanoma) was > 100 µM and the TGI (UO-31 renal) was > 100 µM.
